Assay results taken from PMC6689975, “Novel Cell Wall Antifungals Reveal a Special Synergistic Activity in pbr1 Mutants Resistant to the Glucan Synthesis Antifungals Papulacandins and Echinocandins” (Frontiers in Microbiology, 2019).

What was measured:
C. albicans wild-type [1] = assay: microbe, parasite or virus in culture; parameters: species or system whole yeast cells; micro-culture broth dilution MIC in YES at 30 C, turbidity, complete growth inhibition; conditions: Candida albicans; YES medium, C. albicans strain f
C. albicans wild-type [2] = assay: microbe, parasite or virus in culture; parameters: species or system whole yeast cells; macro tube broth dilution MIC in YEPD at 30 C, visual clearness of medium; conditions: Candida albicans, 48 h, YEPD medium

Compound | MIC (C. albicans wild-type [1]) [µg/mL] | MIC (C. albicans wild-type [2]; C. albicans strain f) [µg/mL] | MIC (C. albicans wild-type [2]; C. albicans strain g) [µg/mL] | MIC (C. albicans wild-type [2]; C. albicans strain h) [µg/mL]
O=c1oc2ccc3ccccc3c2cc1-c1ccccc1CO [compound 12] | > 200 | > 200 | > 200 | > 200
O=c1oc2ccccc2cc1-c1ccccc1CO [compound 15] | > 200 | > 100 | > 100 | > 100
